Entries after “also recorded” stand apart in the source; their conditions may differ. Strand notation (5' to 3'): a small letter for the sugar, then the base; units joined by * are phosphorothioate-linked, units joined directly phosphodiester-linked; [ ] holds rarer units or linkages, { } end groups; capitals alone tell only the bases. [5OctU] = 5-octadiynyl-2'-deoxyuridine, alkyne click handle; d = 2'-deoxy (DNA); {3P} = phosphate; r = 2'-OH (RNA); {P} = phosphate
Columns and labels:
HeLa cells [1] = assay: Two-ORF FLuc/3xHiBiT reporter bioluminometry; type: cell-based; conditions: 8 hrs post transfection
Experimental: (§1) Synthetic linear mRNA encoding NanoLuciferase (NLuc) was prepared from DNA template by IVT with 100% m1ψ substitution. The triphosphorylated mRNA after IVT was then treated with Calf Intestinal Alkaline Phosphatase (CIAP) to yield 5′/3′-hydroxyl mRNA. A chemically synthesized oligonucleotide with a branched m7G cap and 5′/3′-phosphates was then ligated to the 5′/3′-hydroxyl mRNA by T4 RNA ligase, which ligates the 5′-phosphate on the oligo and 3′-hydroxyl of the mRNA. The ligation product was then further treated with RtcB ligase, which ligates the 5′-hydroxyl and 3′-phosphate ends to enable intramolecular circularization. […] Using one primer only produced no fragmentation but only linearization, confirming successful circularization. Using double primers produced fragments flanking the branched region, where branched topology was confirmed by gel shift. […] NLuc bioluminometry was measured 8 hrs post transfection and normalized Firefly luciferase as transfection control. Mean±s.e.m., n=3. P values were calculated by ordinary one-way ANOVA (alpha=0.05), with multiple comparisons to circ-NLuc with only 5-octadiynyl deoxyuridine (OU) handle (construct 45). ****P<0.0001, n.s. P>0.05. […] QRNA with m7G (construct 48) was compared. n=3, biological replicates. Mean±sem. P values were calculated by ordinary one-way ANOVA with multiple comparisons against construct 61 without any cotransfected capped oligos (Dunnett's multiple comparison test). […] P values were calculated by unpaired two-sided t-test.
Finally, Applicant evaluated if the branched cap on the QRNA has the ability to initiate translation of open reading frames (ORFs) upstream of it. […] FLuc and HiBiT bioluminometry were evaluated 8 hrs post transfection.
Lastly, to test whether the branched cap could drive the translation for upstream AUG via either proximity looping or bidirectional ribosome scanning to opt for upstream open reading frames (ORFs), Applicant generated a two-ORF reporter mRNA that contained a 5′ full-length FLuc ORF and a 3′ 3×HiBIT ORF with an out-of-frame start codon from the FLuc ORF (construct 62). […]

[2] = system: rabbit reticulocyte lysate (RRL) in vitro translation system; assay: In vitro translation assay in rabbit reticulocyte lysate with or without 4EGI-1; type: biochemical
Experimental: Firefly luciferase reporter mRNA with one cap and Nanoluc mRNA with two caps were synthesized according to protocol mentioned above. The in vitro translation was conducted using Rabbit Reticulocyte Lysate (Nuclease-treated) [Promega, L4960] according to manufacturer's protocol with some modifications. 30% or 40% of rabbit reticulocyte lysate, 4% of SUPERaseIn RNase Inhibitor, amino acid mixture and indicated mRNA were added to the reaction with 4EGI-1 inhibitor (600 μM) or DMSO as control in 50 μL reaction. The reactions were incubated at 30° C. for an hour. Then, […] of the reaction mixture was diluted by 10-fold with PBS. The fluorescence of firefly luciferase was measured with Dual-Glo Luciferase Assay System [Promega, E2920] and the fluorescence of Nanoluc was measured with Nano-Glo Luciferase Assay System [Promega, N1110] according to manufacturer's protocol.

HeLa cells [3] = assay: NLuc bioluminometry of circRNA/QRNA (Fluc transfection control); type: cell-based
Experimental: as §1
HeLa cells [ATCC, CCL-2] were maintained in DMEM culture media [ThermoFisher Scientific, 119951] containing 10% FBS and 1% penicillin-streptomycin [ThermoFisher Scientific, 15070063] in a 37° C. incubator with 5% CO2 and passaged at a ratio of 1:10 every 3 days. […] Cells were lysed and luciferase activity was measured using the Promega Dual Glo Luciferase Assay System [Promega, E2920]. Firefly luminescence/Renilla luminescence for each well was used as mRNA activity readout. […]

[4] = In vivo imaging of NanoLuc after retro-orbital mRNA-LNP injection; conditions: mice; for NLuc translation of QRNA relative to uncapped m1ψ-circRNA precursor (circRNA-OU): LNP retro-orbital
Experimental: All animal procedures followed animal care guidelines approved by the Institutional Animal Care and Use Committee (IACUC) of the Broad Institute of MIT and Harvard under animal protocol #0255-08-19. Animal experiments were conducted in compliance with IACUC policies and NIH guidelines. The BALB/cj (male, 6~8 weeks old) mice used for in vivo NanoLuc assay in this study were purchased from The Jackson Laboratory (JAX). The C57BL/6 mice (female, 7 weeks old), used for hEPO assay in this study were purchased from The Jackson Laboratory (JAX).
mRNA diluted in 50 mM citrate buffer (pH 4) and lipid mix (37.5 mM in ethanol) containing 50 mol % SM-102, 10 mol % DSPC, 38.5 mol % Cholesterol, and 1.5 mol % DMG-PEG2000 were assembled into LNP using a NanoAssemblr Spark instrument [Precision Nanosystems]. Upon formulation, mRNA-LNPs were diluted in 12 mL 1×PBS solution and the buffer was exchanged by concentrating with a 30 kDa spin filter [MilliporeSigma, UFC901008] to remove residue ethanol. Concentrations and encapsulation efficiency of mRNA were determined using Quant-it RiboGreen RNA Assay Kit [ThermoFisher, R11490]. 1 μg NanoLuc or hEPO mRNA-LNP in a total volume of 100 μL was injected through retro orbital injection into each mouse. Four mice were used for each condition of each experiment (NanoLuc imaging, hEPO ELISA, and reticulocyte counting). For NanoLuc imaging, PBS injection was used as negative control. For hEPO/reticulocyte experiments, poly(C)-LNP complex was used as negative control.
In vivo activity of NanoLuc was measured using a Competent IVIS-Perkin Elmer IVIS Spectrum CT System [Perkin Elmer]. At each time point, mice were anesthetized with isoflurane. The fluorofurimazine substrate with poloxamer-407 [Promega, CS320501] was freshly reconstituted in PBS to a final concentration of ~5.1 mM and injected intraperitoneally (i.p.) into the mice at a dose of ~22 nmol per gram body weight. Mice were imaged 5 mins post injection using auto exposure settings. The luminescent activity was quantified using Aura 4.0 imaging software. The background was determined by including mice injected with poly C-LNP negative control and subtracted from each measurement.

eIF4E = eIF4E (UniProt P06730 P06730:1-217); assay: EMSA; 50 mM KCl, 10 mM Tris-HCl pH 7.6, 1 mM DTT, 4 C; conditions: tags: His tag, Cayman Chemical 25150
Experimental: Capped oligonucleotides were labeled on the 3′ end using AF647 labeled cytidine-5′-phosphate-3′-(6-aminohexyl) phosphate [Jena Bioscience, NU-1706-AF647] and T4 RNA ligase ligated AF647-labeled cytidine onto the capped oligos using manufacturer's protocols. Oligos were then incubated in the binding buffer (1 mM DTT, 50 mM KCl, 10 mM Tris-HCl (pH 7.6), Novex Hi-Density TBE Sample Buffer [Invitrogen, LC6678]) with varying eIF4E-His [Cayman Chemical Inc, 25150] concentrations prepared by sequential dilutions from the stock solution. The oligos and […] were incubated at 4° C. for 30 mins and characterized by EMSA with Novex TBE Gels, 4-20% [Invitrogen, EC6225BOX] at 4° C. AF647 labeled oligos were imaged with BioRad ChemiDoc MP Imaging System [12003154] and band intensities were quantified using ImageJ. For Kd calculation, the proportions of bound were plotted against eIF4E concentration using GraphPad Prism (Specific binding with Hill slope).
To gain insights into the mechanism of how the topologically branched internal cap initiates mRNA translation, Applicant used fluorophore-labeled mono- or dual-capped oligonucleotides and measured their affinity to eIF4E through EMSA.

Sequence of eIF4E (P06730 whole entry, one chain of several): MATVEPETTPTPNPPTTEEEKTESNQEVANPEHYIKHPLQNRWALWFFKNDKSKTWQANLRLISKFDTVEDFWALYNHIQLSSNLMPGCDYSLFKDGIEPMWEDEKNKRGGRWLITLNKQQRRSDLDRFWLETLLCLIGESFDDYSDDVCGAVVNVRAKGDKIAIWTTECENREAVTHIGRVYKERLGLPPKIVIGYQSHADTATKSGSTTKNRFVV

With “construct 64: two-ORF FLuc-3×HiBiT QRNA with LNAm7G branched cap (SEQ ID NO: 119) ({P}-rArArArArArArAd[5OctU]rArArArArArA-{3P}; ligated into circRNA, LNA-m7G-capped LNA/2'-OMe branch oligo clicked at octadiynyl-dU, further chemistry not fully specified)” the “FLuc ORF expression, QRNA vs circRNA (uncapped control)” value (HeLa cells [1]) was 166 fold, the “HiBiT ORF expression, QRNA vs circRNA (uncapped control)” value (HeLa cells [1]) was 18.7 fold and the “Translation of upstream HiBiT and downstream FLuc ORFs, result in words” value (HeLa cells [1]) was “both the HiBiT and FLuc ORFs were enhanced”.

For O=C(O)C(Cc1ccccc1[N+](=O)[O-])=NNc1nc(-c2ccc(Cl)c(Cl)c2)cs1 (mixture of isomers) [4EGI-1], the “Translation of mono- and dual-capped mRNA in RRL” value ([2]; 600 μM 4EGI-1 coupled with reduction of RRL % to 30%) was “almost completely halted translation” and the “Translation of mono- and dual-capped mRNA in RRL in presence of 4EGI-1” value ([2]; 4EGI-1 600 μM or DMSO) was “inhibited translation of dual-capped mRNA; also recorded: significantly reduced”.

For “construct 49: m1ψ NLuc QRNA with LNAm7G branched cap (SEQ ID NO: 115) ({P}-rArArArArArArAd[5OctU]rArArArArArA-{3P}; ligated into m1Ψ circRNA, LNA-m7G-capped LNA/2'-OMe branch oligo clicked at octadiynyl-dU)”, the “NLuc protein production increase of modified circRNA/QRNA” value (HeLa cells [3]; HeLa cells, 8 hrs post transfection, compared to circ-NLuc with only OU handle (construct 45)) was “up to 144 fold”, the “NLuc translation of QRNA relative to uncapped m1ψ-circRNA precursor (circRNA-OU)” value ([4]; 8 hrs) was 17 × and the “NLuc translation of QRNA relative to uncapped m1ψ-circRNA precursor (circRNA-OU)” value ([4]; 24 hrs) was 30 ×. For the same molecule, the “NLuc translation of QRNA relative to uncapped m1ψ-circRNA precursor (circRNA-OU)” value ([4]; 48 hrs) was 59 × and the “Time of peak NLuc bioluminescence / translation in vivo” value ([4]; LNP, retro-orbital injection) was 24 h.

B1: 1xm7G-OU (28) (ssRNA)
RNA: AGAUAAAUAAAAAA
modifications: 5' m7G cap; 5-octadiynyl-dU at position 8
B1 showed a Kd (eIF4E; label: 3' AF647-cytidine) of 2.21 µM.

B2: construct S19: Bn7G-capped Nluc QRNA with globin UTRs, TGT/preQ1-azide labeled, uridine-containing (SEQ ID NO: 133) (nucleic acid)
chain: UAGUCUCGAGCUGGUACUGCAUGCACGCAAUGCUAGCUGCCCCUUUCCCGUCCUGGGUACCCCGAGUCUCCCCCGACCUCGGGUCCCAGGUAUGCUCCCACCUCCACCUGCCCCACUCACCACCUCUGCUAGUUCCAGACACCUCCCAAGCACGCAGCAAUGCAGCUCAAAACGCUUAGCCUAGCCACACCCCCACGGGAAACAGCAGUGAUUAACCUUUAGCAAUAAACGAAAGUUUAACUAAGCUAUACUAACCCCAGGGUUGGUCAAUUUCGUGCCAGCCACACCCUGGAGCUAGCAAAAAAAAAAAAAAAAAAAAAAAAAAAAAAAAAAAAAAACUCAGUAGAUGUUUUCUUGGGUUAAUUGAGGCCUGAGUAUAAGGUGACUUAUACUUGUAAUCUAUCUAAACGGGGAACCUCUCUAGUAGACAAUCCCGUGCUAAAUUGUAGGACUGCCCUUUAAUAAAUACUUCUAUAUUUAAAGAGGUAUUUAUGAAAAGCGGAAUUUAUCAGAUUAAAAAUACUUUCUCUAGAGUCGACCUGCAG
modifications: Bn7G cap; TGT/preQ1-azide label
With B2 the “Nluc translation of QRNA vs circRNA, result in words” value (HeLa cells [3]; circRNA with and without IRES, uridine-containing) was “translated much more efficiently than its circRNA counterpart”.

B3: 2xLNAm7G dual-capped branched (42) (ssRNA)
RNA 1: AGAUAAAUAAAAAA
RNA 2: AGAGAUAA
modifications: LNA-m7G cap on both 5' ends; second strand 3'-azide clicked to 5-octadiynyl-dU at position 8 of first strand
With B3 the Kd (eIF4E; label: AF647-cytidine, branched) was 1.28 µM.
